Source: paper PMC9486808 (ACS Chemical Biology, 2022)
Where “and” joins values, the source holds several entries; their conditions need not be identical. Equal values may be shown once. Starred links: 1 amine or outer side, 2 acyl side, 3 side chain; linkers in the order of their positions; H or OH if unused. Positions of bridges follow the written chain, without caps; N, C: chain ends. Non-standard residues stand in square brackets, D forms with d. Residues, ends and D or L forms follow the SMILES beside them. Groups on a side chain read outwards from the residue. *: point of attachment. X1 = O=C([C@H](CCn1nnc2c1-c1ccccc1CN([*:3])c1ccccc1-2)N[*:1])[*:2]; 6FAM = O=C1OC2(c3ccc(O)cc3Oc3cc(O)ccc32)c2cc(C(=O)*)ccc21; AEEA = NCCOCCOCC(=O)O; Ahx = NCCCCCC(=O)O

Tests used:
H1 ectodomain = H1 ectodomain (Influenza A virus, UniProt C3W5S1); test: biochemical; type: binding, Influenza A virus A/California/04/2009 (H1N1)
Sequence of H1 ectodomain (C3W5S1 entry or part of it, added parts left off): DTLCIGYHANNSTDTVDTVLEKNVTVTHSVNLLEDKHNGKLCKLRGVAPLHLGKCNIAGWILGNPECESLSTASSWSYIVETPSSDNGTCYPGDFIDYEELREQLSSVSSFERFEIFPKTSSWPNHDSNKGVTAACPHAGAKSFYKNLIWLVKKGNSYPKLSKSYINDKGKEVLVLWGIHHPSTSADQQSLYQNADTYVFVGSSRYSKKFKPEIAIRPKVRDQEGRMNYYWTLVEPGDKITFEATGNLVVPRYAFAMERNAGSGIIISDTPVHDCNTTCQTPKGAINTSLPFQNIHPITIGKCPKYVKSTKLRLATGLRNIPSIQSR

H1 HA = H1 HA (Influenza A virus, UniProt C3W5S1); type: binding, Influenza A virus A/California/04/2009 (H1N1)
[1] = test system: H1N1pdm09 (A/Netherlands/602/2009)
[2] = molecular target: H1 ectodomain of A/California/04/2009 (H1N1) (Influenza A virus, UniProt C3W5S1); type: binding, Influenza A virus A/California/04/2009 (H1N1)
Sequence of H1 ectodomain of A/California/04/2009 (H1N1) (C3W5S1 entry or part of it, added parts left off): as above

Row | Compound | ΔTm (°C), crude peptide (H1 HA) | other results
1 | CC(C)C[C@H](NC(=O)[C@@H]1CSCC(=O)N[C@@H](Cc2ccc(O)cc2)C(=O)N[C@@H](Cc2c[nH]c3ccccc23)C(=O)N[C@@H](Cc2c[nH]cn2)C(=O)N[C@@H](CCCCN)C(=O)N[C@@H](CC(N)=O)C(=O)N[C@@H](CCCCN)C(=O)N[C@@H](Cc2ccc(O)cc2)C(=O)N[C@@H](C(C)C)C(=O)N[C@@H](CC(C)C)C(=O)N[C@@H]([C@@H](C)O)C(=O)N[C@@H](Cc2ccc(O)cc2)C(=O)N[C@@H](CO)C(=O)N1)C(=O)N[C@@H](Cc1ccccc1)C(=O)N[C@@H](C)C(=O)N[C@@H](C)C(=O)NCCOCCOCC(=O)N[C@@H](CCn1nnc2c1-c1ccccc1CN(C(=O)CCCCCNC(=O)c1ccc3c(c1)C1(OC3=O)c3ccc(O)cc3Oc3cc(O)ccc31)c1ccccc1-2)C(=O)NCC(=O)N[C@@H](CC(=O)O)C(=O)N[C@@H](Cc1ccc(O)cc1)C(=O)N[C@@H](CCCCN)C(=O)N[C@@H](CC(=O)O)C(=O)N[C@@H](CC(=O)O)C(=O)N[C@@H](CC(=O)O)C(=O)N[C@@H](CC(=O)O)C(=O)N[C@@H](CCCCN)C(=O)NCC(N)=O [L2FAM] ({CH2CO}-YWHKNKYVLTYSCLFAA[AEEA][X1]([Ahx-6FAM])GDYKDDDDKG-NH2; thioether N-13) |  | Hillslope (H1 ectodomain): 0.91 and 0.70
2 | CC(C)[C@@H]1NC(=O)[C@H](Cc2c[nH]c3ccccc23)NC(=O)[C@H](CCCNC(=N)N)NC(=O)[C@H](Cc2ccc(O)cc2)NC(=O)CSC[C@@H](C(=O)NCCOCCOCC(=O)N[C@@H](CCn2nnc3c2-c2ccccc2CN(C(=O)CCCCCNC(=O)c2ccc4c(c2)C2(OC4=O)c4ccc(O)cc4Oc4cc(O)ccc42)c2ccccc2-3)C(=O)NCC(=O)N[C@@H](CC(=O)O)C(=O)N[C@@H](Cc2ccc(O)cc2)C(=O)N[C@@H](CCCCN)C(=O)N[C@@H](CC(=O)O)C(=O)N[C@@H](CC(=O)O)C(=O)N[C@@H](CC(=O)O)C(=O)N[C@@H](CC(=O)O)C(=O)N[C@@H](CCCCN)C(=O)NCC(N)=O)NC(=O)[C@H](C(C)C)NC(=O)[C@H](C(C)C)NC(=O)[C@H](Cc2ccccc2)NC(=O)[C@H](Cc2ccc(O)cc2)NC(=O)[C@@H]2CCCN2C(=O)[C@H](CCC(=O)O)NC(=O)[C@H](CO)NC(=O)[C@H](Cc2ccccc2)NC(=O)[C@H](Cc2ccccc2)NC(=O)[C@H](CO)NC(=O)[C@H]([C@@H](C)O)NC(=O)[C@H](Cc2c[nH]c3ccccc23)NC1=O [L4FAM] ({CH2CO}-YRWVWTSFFSEPYFVVC[AEEA][X1]([Ahx-6FAM])GDYKDDDDKG-NH2; thioether N-17) |  | Hillslope (H1 ectodomain): 0.96 and 0.76
3 | CC[C@H](C)[C@@H]1NC(=O)[C@H](CCCCN)NC(=O)[C@H](CO)NC(=O)[C@H](Cc2c[nH]c3ccccc23)NC(=O)[C@H](Cc2ccc(O)cc2)NC(=O)[C@H]([C@@H](C)CC)NC(=O)[C@H](CCCCN)NC(=O)[C@H](CC(C)C)NC(=O)[C@@H](Cc2ccc(O)cc2)NC(=O)CSC[C@@H](C(=O)NCCOCCOCC(=O)N[C@@H](CCn2nnc3c2-c2ccccc2CN(C(=O)CCCCCNC(=O)c2ccc4c(c2)C2(OC4=O)c4ccc(O)cc4Oc4cc(O)ccc42)c2ccccc2-3)C(=O)NCC(=O)N[C@@H](CC(=O)O)C(=O)N[C@@H](Cc2ccc(O)cc2)C(=O)N[C@@H](CCCCN)C(=O)N[C@@H](CC(=O)O)C(=O)N[C@@H](CC(=O)O)C(=O)N[C@@H](CC(=O)O)C(=O)N[C@@H](CC(=O)O)C(=O)N[C@@H](CCCCN)C(=O)NCC(N)=O)NC(=O)[C@H](Cc2c[nH]c3ccccc23)NC(=O)[C@H](CCC(=O)O)NC(=O)[C@H](CO)NC(=O)[C@H](C(C)C)NC(=O)[C@H](CC(C)C)NC(=O)CNC(=O)[C@H](Cc2c[nH]cn2)NC1=O [S3FAM] ({CH2CO}-[dY]LKIYWSKIHGLVSEWC[AEEA][X1]([Ahx-6FAM])GDYKDDDDKG-NH2; thioether N-17) |  | Hillslope (H1 ectodomain): 1.02 and 0.94
4 | CC(C)C[C@@H]1NC(=O)[C@H](C(C)C)NC(=O)[C@@H](Cc2ccc(O)cc2)NC(=O)CSC[C@@H](C(=O)NCCOCCOCC(=O)N[C@@H](CCn2nnc3c2-c2ccccc2CN(C(=O)CCCCCNC(=O)c2ccc4c(c2)C2(OC4=O)c4ccc(O)cc4Oc4cc(O)ccc42)c2ccccc2-3)C(=O)NCC(=O)N[C@@H](CC(=O)O)C(=O)N[C@@H](Cc2ccc(O)cc2)C(=O)N[C@@H](CCCCN)C(=O)N[C@@H](CC(=O)O)C(=O)N[C@@H](CC(=O)O)C(=O)N[C@@H](CC(=O)O)C(=O)N[C@@H](CC(=O)O)C(=O)N[C@@H](CCCCN)C(=O)NCC(N)=O)NC(=O)[C@H](C(C)C)NC(=O)[C@H](Cc2c[nH]c3ccccc23)NC(=O)[C@H](Cc2c[nH]cn2)NC(=O)[C@H]([C@@H](C)O)NC(=O)[C@H](C)NC(=O)[C@H](CC(C)C)NC(=O)[C@H]([C@@H](C)O)NC(=O)CNC(=O)[C@H](Cc2c[nH]cn2)NC(=O)[C@H](CC(=O)O)NC(=O)[C@H](Cc2c[nH]c3ccccc23)NC(=O)[C@H](CCCNC(=N)N)NC(=O)[C@H](Cc2ccccc2)NC1=O [S5FAM] ({CH2CO}-[dY]VLFRWDHGTLATHWVC[AEEA][X1]([Ahx-6FAM])GDYKDDDDKG-NH2; thioether N-17) |  | Hillslope (H1 ectodomain): 0.97 and 0.86
5 | Cyclo(Ac-YITRFTPWPKLYPVWDC)G-NH2 (Ac-YITRFTPWPKLYPVWDCG-NH2; bridge N-17; also: cyclized, linkage type not given here) [L1] |  | ΔTm (°C), purified peptide (H1 HA): 3.8 °C; Inhibition of infection at a single concentration [1]: strong inhibition of infection
6 | Cyclo(Ac-YRFLWSSFSSQPSWVHC)G-NH2 [B5] | 1.4 °C | 
7 | Cyclo(Ac-YSNNRNWLPHDWQVLYC)G-NH2 [B6] | 1.6 °C | 
8 | Cyclo(Ac-YSYFDVNTIFWFSPFC)CG-NH2 [S9] | 0.0 °C | 
9 | Cyclo(Ac-YVQIFDRYGIYSGKWSC)G-NH2 [B8] | 1.0 °C | 
10 | Cyclo(Ac-YYKALWINATFYQSLVC)G-NH2 [R5] | 1.2 °C | 
11 | Cyclo(Ac-YYSWFEATGRFRAIFSC)G-NH2 [R4] | 1.4 °C | 
12 | Cyclo(Ac-yAFWIRWTNHYRSGFTC)G-NH2 [B4] | 2.0 °C | Inhibition of infection at a single concentration [1]: strong inhibition of infection
13 | Cyclo(Ac-yFLC)TKWNYGRWYLFYCG-NH2 [R1] | 1.4 °C | 
14 | Cyclo(Ac-yFVNWYWHGEKLFYRYC)G-NH2 [R2] | 2.2 °C | 
15 | Cyclo(Ac-yIRLFWINGNLVSEWNC)G-NH2 [S2] | 4.4 °C | Binding region in the HA stem (HDX-MS) [2]: aa 369–387; Inhibition of infection at a single concentration [1]: strong inhibition of infection
16 | Cyclo(Ac-yIVLAWKGHYLESRWTC)G-NH2 [S8] | 1.6 °C | 
17 | Cyclo(Ac-yLIWPSFNQNAKIIFPC)G-NH2 [B9] | 3.6 °C | 
18 | Cyclo(Ac-yRQWFYLGKYYC)TWSCCG-NH2 [S4] | 0.0 °C | 
19 | Cyclo(Ac-yRVFNISWDGEYRSWWC)G-NH2 [B3] | 0.4 °C | 
20 | Cyclo(Ac-ySYFIWANFQTEPYFVC)G-NH2 [B2] | 0.6 °C | Binding region in the HA stem (HDX-MS) [2]: aa 369–387; Inhibition of infection at a single concentration [1]: strong inhibition of infection
21 | Cyclo(Ac-yTYYVLLQRWPPVWAPC)G-NH2 [B1] | 2.0 °C | Binding region in the HA stem (HDX-MS) [2]: aa 369–387; Inhibition of infection at a single concentration [1]: strong inhibition of infection
22 | Cyclo(Ac-yVIAIRPFSQLCWRWVC)G-NH2 [S7] | 0.4 °C | 
23 | Cyclo(Ac-yVKIVWFEGTLNTTWFC)G-NH2 [S6] | 1.6 °C | 
